Laboratory results as given in patent US9877962B2, “Piperazinyl derivatives for the treatment of cancer” (priority 2011, dated 2018).

Legend:
Type in all cases: cell-based, human
MCF-7/adr = experiment: Cytotoxicity test (ViaLight Plus cell proliferation) on MCF-7/adr; conditions: adriamycin-resistant line, 72 hours' incubation, cell viability vs 0.5% DMSO control
Source text: (§1) The effects of the compounds of the invention on the proliferation of cancer cells were studied on different human cancer cell lines of different tissue origin (MCF-7: breast cancer, MCF-7/adr adriamycin-resistant breast cancer, HL-60: acute promyelocytic leukaemia, HL-60/R10: doxorubicin-resistant acute promyelocytic leukaemia, HT29: colon adenocarcinoma, Mia Paca2: pancreatic tumour, Panc-1: pancreatic exocrine tumour, SK-OV-3: cisplatin- and adriamycin resistant ovarian cancer). The cancer cells used for this study were incubated at 37° C. in the presence of one of the compounds of the invention added to the culture medium at different concentrations.
(§2) The cancer cell lines were obtained from ATCC (American Type Culture Collection) for MCF-7, from Hôpital de la Pitié Salpetrière for MCF-7/adr and from Oncodesign (Dijon, France) for HL-60, HL-60/R10, HT29, MiaPaCa2, Panc-1 and SK-OV-3. They were cultured in RPMI 1640 medium containing 2 mM L-Glutamine supplemented with 10% foetal calf serum (Lonza; Verviers, Belgium). All the cell lines were held in culture at 37° C. in a humid atmosphere containing 5% CO2. Cell proliferation was assessed using the ViaLight® Plus Assay Kit (Lonza; Verviers, Belgium) following the manufacturer's instructions. The cells were seeded in 96-well culture plates compatible with luminescence read-off (white plates with transparent bottom) in a proportion of 5 000 to 10 000 cells per well in 100 μl of culture medium. After a pre-incubation time of 24 hours at 37° C., the compounds of the invention dissolved in dimethylsulfoxide (DMSO) were individually added to each well in a proportion of 0.5 μl per well. After 72 hours' incubation at 37° C. in a humid atmosphere containing 5% CO2, 50 μl of lysis buffer were added to each well and 15 minutes later 100 μl of ATP measuring agent were added. The plates were read under a luminometer to evaluate cell viability. The data obtained was processed by computer to obtain the EC50 value i.e. the concentration value of each of the compounds which induces 50% cell viability compared with a control value (0.5% DMSO alone).

MCF-7 = experiment: Cytotoxicity test (ViaLight Plus cell proliferation) on MCF-7; conditions: 72 hours' incubation, cell viability vs 0.5% DMSO control; for IC50: Homo sapiens, MCF7, 72 h, read-out: EC50 MCF-7
Source text: as §1, §2

HL-60/R10 = experiment: Cytotoxicity test (ViaLight Plus cell proliferation) on HL-60/R10; conditions: doxorubicin-resistant line, 72 hours' incubation, cell viability vs 0.5% DMSO control; read-out: EC50 HL60/R10
Source text: as §1, §2

HL-60 = experiment: Cytotoxicity test (ViaLight Plus cell proliferation) on HL-60; conditions: 72 hours' incubation, cell viability vs 0.5% DMSO control; for IC50: Homo sapiens, HL-60, 72 h, read-out: EC50 HL-60
Source text: as §1, §2

| Molecule | EC50 (MCF-7/adr) [nM] | EC50 (MCF-7) [nM] | EC50 (HL-60/R10) [nM] | EC50 (HL-60) [nM] | IC50 (MCF-7) [nM] | IC50 (HL-60) [nM] |
| --- | --- | --- | --- | --- | --- | --- |
| CC(C)[C@H]1CN(C(=O)C(c2ccc(F)cc2)N(C(=O)CCl)c2ccc(Oc3ccccc3)cc2)CCN1 (single isomer, unassigned) [I-3 dia1] | 55 | 927 | 15 | 1310 |  |  |
| CC(C)[C@@H]1CN(C(=O)C(c2ccc(F)cc2)N(C(=O)CCl)c2ccc(Oc3ccccc3)cc2)CCN1 (single isomer, unassigned) [I-4 dia1] | 13 | 315 | 4 | 648 |  |  |
| CC(C)[C@@H]1CN(C(=O)C(c2ccc(F)cc2)N(C(=O)CCl)c2ccc(Oc3ccccc3)cc2)CCN1 (single isomer, unassigned) [I-4 dia2] | 166 | 863 | 62 | 1320 |  |  |
| Cc1cc(Oc2ccccc2)ccc1N(C(=O)CCl)C(C(=O)N1CCN[C@@H](C(C)C)C1)c1ccc(F)cc1 (single isomer, unassigned) [I-7 dia1] | 618 |  | 604 |  | 2500 | 2500 |
| Cc1cc(Oc2ccccc2)ccc1N(C(=O)CCl)C(C(=O)N1CCN[C@H](C(C)C)C1)c1ccc(F)cc1 (single isomer, unassigned) [I-8 dia1] | 148 |  | 54 |  | 1740 | 2030 |
| Cc1cc(Oc2ccccc2)ccc1N(C(=O)CCl)C(C(=O)N1CCN[C@H](C(C)C)C1)c1ccc(F)cc1 (single isomer, unassigned) [I-8 dia2] | 477 | 2410 | 312 | 1740 |  |  |
| CC[C@@H]1CN(C(=O)C(c2ccc(F)cc2)N(C(=O)CCl)c2ccc(Oc3ccccc3)cc2C)CCN1C(=O)OC(C)(C)C (single isomer, unassigned; dia1) [I-16 dia1] | 527 |  | 450 | 1480 |  |  |
| CC[C@H]1CN(C(=O)C(c2ccc(F)cc2)N(C(=O)CCl)c2ccc(Oc3ccccc3)cc2C)CCN1 (single isomer, unassigned; dia1) [I-17 dia1] | 898 |  | 353 | 2310 |  |  |
| CC[C@@H]1CN(C(=O)C(c2ccc(F)cc2)N(C(=O)CCl)c2ccc(Oc3ccccc3)cc2C)CCN1 (single isomer, unassigned; dia1) [I-18 dia1] | 485 |  | 140 | 1600 |  |  |
| CC[C@H]1CN(C(=O)C(c2ccc(F)cc2)N(C(=O)CCl)c2ccc(Oc3ccccc3)cc2)CCN1C(=O)OC(C)(C)C (single isomer, unassigned; dia1) [I-19 dia1] | 128 |  | 97 | 516 |  |  |
| CC[C@@H]1CN(C(=O)C(c2ccc(F)cc2)N(C(=O)CCl)c2ccc(Oc3ccccc3)cc2)CCN1C(=O)OC(C)(C)C (single isomer, unassigned; dia1) [I-20 dia1] | 73 | 1570 | 80 | 196 |  |  |
| C[C@H]1CN(C(=O)C(c2ccc(F)cc2)N(C(=O)CCl)c2ccc(Oc3ccccc3)cc2)CCN1 (single isomer, unassigned; dia1) [I-21 dia1] | 93 | 1950 | 13 | 2450 |  |  |
| C[C@@H]1CN(C(=O)C(c2ccc(F)cc2)N(C(=O)CCl)c2ccc(Oc3ccccc3)cc2)CCN1 (single isomer, unassigned; dia1) [I-22 dia1] | 131 | 569 | 17 | 2000 |  |  |
| Cc1cc(OC(C)C)ccc1N(C(=O)CCl)C(C(=O)N1CCN[C@@H](C(C)C)C1)c1ccc(F)cc1 (single isomer, unassigned; dia1) [I-26 dia1] | 93 | 1950 | 13 | 2450 |  |  |
| Cc1cc(OC(F)(F)F)ccc1N(C(=O)CCl)C(C(=O)N1CCN[C@@H](C(C)C)C1)c1ccc(F)cc1 (single isomer, unassigned; dia1) [I-27 dia1] | 131 | 569 | 17 | 2000 |  |  |
| Cc1cc(Oc2ccccc2)ccc1N(C(=O)CCl)C(C(=O)N1CCN(C(=O)OC(C)(C)C)[C@H](C)C1)c1cccs1 (single isomer, unassigned; dia1) [I-40 dia1] | 371 |  | 248 | 2130 |  |  |
| Cc1cc(Oc2ccccc2)ccc1N(C(=O)CCl)C(C(=O)N1CCN(C(=O)OC(C)(C)C)C(C(=O)NCc2ccccc2)C1)c1cccs1 (single isomer, unassigned; dia1) [I-53 dia1] | 462 | 2060 | 645 | 1980 |  |  |
| CC[C@@H]1CN(C(=O)C(c2ccc(F)cc2)N(C(=O)CCl)c2ccc(Oc3ccccc3)cc2C)CCN1C(=O)OC(C)(C)C (single isomer, unassigned; dia2) [I-16 dia2] | 443 |  | 317 | 1910 |  |  |
| CC[C@H]1CN(C(=O)C(c2ccc(F)cc2)N(C(=O)CCl)c2ccc(Oc3ccccc3)cc2C)CCN1 (single isomer, unassigned; dia2) [I-17 dia2] | 152 | 1990 | 49 | 1600 |  |  |
| CC[C@@H]1CN(C(=O)C(c2ccc(F)cc2)N(C(=O)CCl)c2ccc(Oc3ccccc3)cc2C)CCN1 (single isomer, unassigned; dia2) [I-18 dia2] | 152 | 591 | 44 | 352 |  |  |
| CC[C@H]1CN(C(=O)C(c2ccc(F)cc2)N(C(=O)CCl)c2ccc(Oc3ccccc3)cc2)CCN1C(=O)OC(C)(C)C (single isomer, unassigned; dia2) [I-19 dia2] | 35 |  | 24 | 453 |  |  |
| CC[C@@H]1CN(C(=O)C(c2ccc(F)cc2)N(C(=O)CCl)c2ccc(Oc3ccccc3)cc2)CCN1C(=O)OC(C)(C)C (single isomer, unassigned; dia2) [I-20 dia2] | 165 |  | 139 | 1480 |  |  |
| C[C@H]1CN(C(=O)C(c2ccc(F)cc2)N(C(=O)CCl)c2ccc(Oc3ccccc3)cc2)CCN1 (single isomer, unassigned; dia2) [I-21 dia2] | 10 | 869 | 8 | 630 |  |  |
| C[C@@H]1CN(C(=O)C(c2ccc(F)cc2)N(C(=O)CCl)c2ccc(Oc3ccccc3)cc2)CCN1 (single isomer, unassigned; dia2) [I-22 dia2] | 34 | 430 | 18 | 1150 |  |  |
| Cc1cc(Oc2ccccc2)ccc1N(C(=O)CCl)C(C(=O)N1CCN(C(=O)OC(C)(C)C)[C@H](C)C1)c1cccs1 (single isomer, unassigned; dia2) [I-40 dia2] | 827 |  | 487 |  |  |  |
| Cc1cc(Oc2ccccc2)ccc1N(C(=O)CCl)C(C(=O)N1CCN2CCC[C@H]2C1)c1cccs1 (stereo partly shown) [Example I-33] | 394 |  | 157 |  |  |  |
| tert-butyl ester of 4-[2-[(2-chloro-acetyl)-(4-phenoxy-phenyl)-amino]-2-(4-fluoro-phenyl)-acetyl]-(S)-2-isopropyl-piperazine-1-carboxylic acid [I-1 dia1] | 338 |  |  | 1800 |  |  |
| tert-butyl ester of 4-[-2-[(2-chloro-acetyl)-(4-phenoxy-phenyl)-amino]-2-(4-fluoro-phenyl)-acetyl]-(R)-2-isopropyl-piperazine-1-carboxylic acid [I-2 dia2] | 645 |  | 472 | 2060 |  |  |
